Experimental data published in patent US9790178B2, “Pyrrolidinyl urea, thiourea, guanidine and cyanoguanidine compounds as TrkA kinase inhibitors” (Array BioPharma Inc., priority 2012, dated 2017).

Legend:
Experiment in all cases: KinaseProfiler off-target kinase profiling
Assay type in all cases: biochemical
Conditions in all cases: 10 μM, ATP near Km
PDGFRbeta = biological target: T1, PDGFRbeta (Homo sapiens, UniProt P09619)
T1 construct: purchased Millipore, Inc. (KinaseProfiler service)
Summary of the method: (§1)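 Compound tested at a single 10 μM concentration in duplicate, with ATP near each kinase's Km. Activity is reported as percent of control, averaged over the two replicates.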

EphB2 = biological target: T2, EphB2 (Homo sapiens, UniProt P29323)
T2 construct: purchased Millipore, Inc. (KinaseProfiler service)
Summary of the method: as §1

PTK6 = biological target: T3, PTK6 (Homo sapiens, UniProt Q13882)
T3 construct: purchased Millipore (KinaseProfiler service)
Summary of the method: as §1

Yes = biological target: T4, Yes (Homo sapiens, UniProt P07947)
T4 construct: purchased Millipore, Inc. (KinaseProfiler service)
Summary of the method: as §1

STK33 = biological target: T5, STK33 (Homo sapiens, UniProt Q9BYT3)
T5 construct: purchased Millipore, Inc. (KinaseProfiler service)
Summary of the method: as §1

TrkA = biological target: T6, TrkA (Homo sapiens, UniProt P04629)
T6 construct: purchased Millipore, Inc. (KinaseProfiler service)
Summary of the method: as §1

BLK_m = biological target: T7, BLK_m (Mus musculus, UniProt P16277)
T7 construct: purchased Millipore, Inc. (KinaseProfiler service)
Summary of the method: as §1

MST1 = biological target: T8, MST1 (Homo sapiens, UniProt Q13043)
T8 construct: purchased Millipore, Inc. (KinaseProfiler service)
Summary of the method: as §1

MAP3K5 = biological target: T9, MAP3K5 (Homo sapiens, UniProt Q99683)
T9 construct: purchased Millipore, Inc. (KinaseProfiler service)
Summary of the method: as §1

MELK = biological target: T10, MELK (Homo sapiens, UniProt Q14680)
T10 construct: purchased Millipore, Inc. (KinaseProfiler service)
Summary of the method: as §1

SGK3 = biological target: T11, SGK3 (Homo sapiens, UniProt Q96BR1)
T11 construct: purchased Millipore, Inc. (KinaseProfiler service)
Summary of the method: as §1

Rsk1 = biological target: T12, Rsk1 (Homo sapiens, UniProt Q15418)
T12 construct: purchased Millipore (KinaseProfiler service)
Summary of the method: as §1

TAK1 = biological target: T13, TAK1 (Homo sapiens, UniProt O43318)
T13 construct: purchased Millipore, Inc. (KinaseProfiler service)
Summary of the method: as §1

ALK4 = biological target: T14, ALK4 (Homo sapiens, UniProt P36896)
T14 construct: purchased Millipore, Inc. (KinaseProfiler service)
Summary of the method: as §1

CDK6/cyclinD3 = biological target: T15, CDK6/cyclinD3 (Homo sapiens, UniProt Q00534)
T15 construct: purchased Millipore, Inc. (KinaseProfiler service)
Summary of the method: as §1

Syk = biological target: T16, Syk (Homo sapiens, UniProt P43405)
T16 construct: purchased Millipore, Inc. (KinaseProfiler service)
Summary of the method: as §1

NLK = biological target: T17, NLK (Homo sapiens, UniProt Q9UBE8)
T17 construct: purchased Millipore, Inc. (KinaseProfiler service)
Summary of the method: as §1

FGFR3 = biological target: T18, FGFR3 (Homo sapiens, UniProt P22607)
T18 construct: purchased Millipore, Inc. (KinaseProfiler service)
Summary of the method: as §1

Lyn = biological target: T19, Lyn (Homo sapiens, UniProt P07948)
T19 construct: purchased Millipore, Inc. (KinaseProfiler service)
Summary of the method: as §1

MARK1 = biological target: T20, MARK1 (Homo sapiens, UniProt Q9P0L2)
T20 construct: purchased Millipore, Inc. (KinaseProfiler service)
Summary of the method: as §1

MKK6 = biological target: T21, MKK6 (Homo sapiens, UniProt P52564)
T21 construct: purchased Millipore, Inc. (KinaseProfiler service)
Summary of the method: as §1

ITK = biological target: T22, ITK (Homo sapiens, UniProt Q08881)
T22 construct: purchased Millipore, Inc. (KinaseProfiler service)
Summary of the method: as §1

MSSK1 = biological target: T23, MSSK1 (Homo sapiens, UniProt Q9UPE1)
T23 construct: purchased Millipore, Inc. (KinaseProfiler service)
Summary of the method: as §1

TEC Activated = biological target: T24, TEC Activated (Homo sapiens, UniProt P42680)
T24 construct: purchased Millipore, Inc. (KinaseProfiler service)
Summary of the method: as §1

Abl = biological target: T25, Abl (Homo sapiens, UniProt P00519)
T25 construct: purchased Millipore, Inc. (KinaseProfiler service)
Summary of the method: as §1

LOK = biological target: T26, LOK (Homo sapiens, UniProt O94804)
T26 construct: purchased Millipore, Inc. (KinaseProfiler service)
Summary of the method: as §1

GRK6 = biological target: T27, GRK6 (Homo sapiens, UniProt P43250)
T27 construct: purchased Millipore, Inc. (KinaseProfiler service)
Summary of the method: as §1

PKCepsilon = biological target: T28, PKCepsilon (Homo sapiens, UniProt Q02156)
T28 construct: purchased Millipore, Inc. (KinaseProfiler service)
Summary of the method: as §1

Ron = biological target: T29, Ron (Homo sapiens, UniProt Q04912)
T29 construct: purchased Millipore (KinaseProfiler service)
Summary of the method: as §1

PKCmu = biological target: T30, PKCmu (Homo sapiens, UniProt Q15139)
T30 construct: purchased Millipore (KinaseProfiler service)
Summary of the method: as §1

PKCbetaI = biological target: T31, PKCbetaI (Homo sapiens, UniProt P05771)
T31 construct: purchased Millipore, Inc. (KinaseProfiler service)
Summary of the method: as §1

Rsk4 = biological target: T32, Rsk4 (Homo sapiens, UniProt Q9UK32)
T32 construct: purchased Millipore, Inc. (KinaseProfiler service)
Summary of the method: as §1

IRAK4 = biological target: T33, IRAK4 (Homo sapiens, UniProt Q9NWZ3)
T33 construct: purchased Millipore, Inc. (KinaseProfiler service)
Summary of the method: as §1

MARK2 = biological target: T34, MARK2 (Homo sapiens, UniProt Q7KZI7)
T34 construct: purchased Millipore, Inc. (KinaseProfiler service)
Summary of the method: as §1

MSK1 = biological target: T35, MSK1 (Homo sapiens, UniProt O75582)
T35 construct: purchased Millipore, Inc. (KinaseProfiler service)
Summary of the method: as §1

BrSK2 = biological target: T36, BrSK2 (Homo sapiens, UniProt Q8IWQ3)
T36 construct: purchased Millipore, Inc. (KinaseProfiler service)
Summary of the method: as §1

ULK3 = biological target: T37, ULK3 (Homo sapiens, UniProt Q6PHR2)
T37 construct: purchased Millipore, Inc. (KinaseProfiler service)
Summary of the method: as §1

AURKA = biological target: T38, AURKA (Homo sapiens, UniProt O14965)
T38 construct: purchased Millipore, Inc. (KinaseProfiler service)
Summary of the method: as §1

Fyn = biological target: T39, Fyn (Homo sapiens, UniProt P06241)
T39 construct: purchased Millipore, Inc. (KinaseProfiler service)
Summary of the method: as §1

JNK2alpha2 = biological target: T40, JNK2alpha2 (Homo sapiens, UniProt P45984)
T40 construct: purchased Millipore, Inc. (KinaseProfiler service)
Summary of the method: as §1

DAPK1 = biological target: T41, DAPK1 (Homo sapiens, UniProt P53355)
T41 construct: purchased Millipore, Inc. (KinaseProfiler service)
Summary of the method: as §1

c-RAF = test system: c-RAF
Summary of the method: as §1

T2 sequence (P29323 19-1055): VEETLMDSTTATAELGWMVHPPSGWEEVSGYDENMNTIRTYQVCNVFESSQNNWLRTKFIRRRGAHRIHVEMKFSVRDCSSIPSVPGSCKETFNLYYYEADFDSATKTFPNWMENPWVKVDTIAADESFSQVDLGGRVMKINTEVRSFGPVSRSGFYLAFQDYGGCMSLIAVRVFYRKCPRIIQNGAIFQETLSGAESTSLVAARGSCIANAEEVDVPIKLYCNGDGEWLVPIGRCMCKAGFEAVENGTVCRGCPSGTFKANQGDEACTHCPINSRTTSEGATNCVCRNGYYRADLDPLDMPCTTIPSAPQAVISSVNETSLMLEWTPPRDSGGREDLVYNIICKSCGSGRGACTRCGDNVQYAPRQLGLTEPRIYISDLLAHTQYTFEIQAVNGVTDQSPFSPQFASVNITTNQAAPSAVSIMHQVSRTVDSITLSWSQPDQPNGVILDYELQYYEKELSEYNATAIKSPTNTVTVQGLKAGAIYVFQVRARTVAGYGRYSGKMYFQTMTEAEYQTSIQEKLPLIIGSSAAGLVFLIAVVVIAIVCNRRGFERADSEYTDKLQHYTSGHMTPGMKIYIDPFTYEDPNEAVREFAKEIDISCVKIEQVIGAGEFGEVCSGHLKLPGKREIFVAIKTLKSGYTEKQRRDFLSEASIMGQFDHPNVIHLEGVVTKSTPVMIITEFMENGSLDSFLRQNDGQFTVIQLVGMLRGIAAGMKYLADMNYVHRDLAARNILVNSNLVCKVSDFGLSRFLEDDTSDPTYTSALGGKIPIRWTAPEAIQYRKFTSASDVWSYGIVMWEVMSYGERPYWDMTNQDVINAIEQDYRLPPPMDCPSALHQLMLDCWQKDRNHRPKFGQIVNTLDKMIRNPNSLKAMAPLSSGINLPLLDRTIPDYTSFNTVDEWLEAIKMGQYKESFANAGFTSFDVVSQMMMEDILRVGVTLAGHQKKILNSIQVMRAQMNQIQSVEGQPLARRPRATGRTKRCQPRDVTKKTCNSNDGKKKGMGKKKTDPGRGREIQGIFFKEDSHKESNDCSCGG
T15 sequence (Q00534 whole entry): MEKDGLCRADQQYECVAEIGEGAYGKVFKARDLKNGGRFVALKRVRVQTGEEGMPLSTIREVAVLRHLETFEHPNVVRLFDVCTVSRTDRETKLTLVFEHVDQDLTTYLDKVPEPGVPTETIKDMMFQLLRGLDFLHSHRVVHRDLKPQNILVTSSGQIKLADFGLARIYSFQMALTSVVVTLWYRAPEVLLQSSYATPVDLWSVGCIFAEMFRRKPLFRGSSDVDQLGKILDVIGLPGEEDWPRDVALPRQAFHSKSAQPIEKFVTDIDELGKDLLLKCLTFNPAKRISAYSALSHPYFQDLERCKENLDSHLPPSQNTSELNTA
T15 sequence (P30281 whole entry partner): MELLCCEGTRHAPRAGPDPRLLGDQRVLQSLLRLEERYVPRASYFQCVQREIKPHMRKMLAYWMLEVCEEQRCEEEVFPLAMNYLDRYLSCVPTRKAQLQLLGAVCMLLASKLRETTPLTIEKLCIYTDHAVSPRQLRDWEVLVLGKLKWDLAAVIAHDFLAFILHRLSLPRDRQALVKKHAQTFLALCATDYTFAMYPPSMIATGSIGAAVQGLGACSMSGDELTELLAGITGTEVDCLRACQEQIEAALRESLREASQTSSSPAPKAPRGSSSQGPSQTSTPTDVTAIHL
T19 sequence (P07948 whole entry): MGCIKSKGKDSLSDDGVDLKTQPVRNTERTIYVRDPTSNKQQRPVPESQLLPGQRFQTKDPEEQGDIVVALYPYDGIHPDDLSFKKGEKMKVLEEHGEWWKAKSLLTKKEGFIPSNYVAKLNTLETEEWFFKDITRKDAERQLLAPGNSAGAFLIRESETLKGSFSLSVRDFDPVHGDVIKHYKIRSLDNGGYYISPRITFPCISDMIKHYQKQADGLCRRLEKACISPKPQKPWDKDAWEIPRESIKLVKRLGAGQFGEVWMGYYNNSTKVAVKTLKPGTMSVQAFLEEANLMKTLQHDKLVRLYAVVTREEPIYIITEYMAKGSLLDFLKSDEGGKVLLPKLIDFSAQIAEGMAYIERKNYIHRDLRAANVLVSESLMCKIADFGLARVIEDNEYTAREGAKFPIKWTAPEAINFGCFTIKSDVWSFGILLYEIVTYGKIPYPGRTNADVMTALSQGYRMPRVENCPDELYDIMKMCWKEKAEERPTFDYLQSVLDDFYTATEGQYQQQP
T24 sequence (P42680 whole entry): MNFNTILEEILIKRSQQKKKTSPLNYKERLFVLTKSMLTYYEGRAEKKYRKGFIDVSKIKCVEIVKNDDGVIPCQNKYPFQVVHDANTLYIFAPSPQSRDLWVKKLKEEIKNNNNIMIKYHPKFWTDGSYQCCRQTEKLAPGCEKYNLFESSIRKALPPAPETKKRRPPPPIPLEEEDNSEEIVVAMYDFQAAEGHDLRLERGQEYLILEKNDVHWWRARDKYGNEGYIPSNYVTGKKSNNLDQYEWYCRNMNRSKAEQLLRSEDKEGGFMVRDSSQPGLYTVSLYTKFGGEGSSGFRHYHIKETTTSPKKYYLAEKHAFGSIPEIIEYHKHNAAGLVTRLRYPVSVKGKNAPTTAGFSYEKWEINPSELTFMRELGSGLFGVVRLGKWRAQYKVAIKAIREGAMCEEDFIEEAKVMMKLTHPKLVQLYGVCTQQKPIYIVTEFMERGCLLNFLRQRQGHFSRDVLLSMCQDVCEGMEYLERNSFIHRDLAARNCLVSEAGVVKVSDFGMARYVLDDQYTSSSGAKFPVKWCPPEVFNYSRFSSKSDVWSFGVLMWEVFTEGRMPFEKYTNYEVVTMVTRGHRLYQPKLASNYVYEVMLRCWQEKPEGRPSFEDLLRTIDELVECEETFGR
T22 sequence (Q08881 whole entry): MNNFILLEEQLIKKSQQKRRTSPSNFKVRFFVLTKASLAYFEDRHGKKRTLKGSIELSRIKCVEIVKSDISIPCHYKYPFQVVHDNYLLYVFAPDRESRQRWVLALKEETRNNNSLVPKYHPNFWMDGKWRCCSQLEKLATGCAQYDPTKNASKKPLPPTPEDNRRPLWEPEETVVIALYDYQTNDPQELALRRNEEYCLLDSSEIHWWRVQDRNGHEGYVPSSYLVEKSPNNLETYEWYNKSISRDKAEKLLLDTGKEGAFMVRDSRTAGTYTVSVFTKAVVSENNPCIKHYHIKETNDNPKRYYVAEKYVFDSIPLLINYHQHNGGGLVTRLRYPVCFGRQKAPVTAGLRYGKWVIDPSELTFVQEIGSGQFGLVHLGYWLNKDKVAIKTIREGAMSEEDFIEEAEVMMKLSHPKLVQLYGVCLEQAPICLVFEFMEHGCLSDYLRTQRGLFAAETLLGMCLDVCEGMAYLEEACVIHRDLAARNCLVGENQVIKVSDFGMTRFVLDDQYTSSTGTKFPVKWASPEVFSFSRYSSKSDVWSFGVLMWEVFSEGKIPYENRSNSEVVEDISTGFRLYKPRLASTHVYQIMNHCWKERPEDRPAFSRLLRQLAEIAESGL
T28 sequence (Q02156 whole entry): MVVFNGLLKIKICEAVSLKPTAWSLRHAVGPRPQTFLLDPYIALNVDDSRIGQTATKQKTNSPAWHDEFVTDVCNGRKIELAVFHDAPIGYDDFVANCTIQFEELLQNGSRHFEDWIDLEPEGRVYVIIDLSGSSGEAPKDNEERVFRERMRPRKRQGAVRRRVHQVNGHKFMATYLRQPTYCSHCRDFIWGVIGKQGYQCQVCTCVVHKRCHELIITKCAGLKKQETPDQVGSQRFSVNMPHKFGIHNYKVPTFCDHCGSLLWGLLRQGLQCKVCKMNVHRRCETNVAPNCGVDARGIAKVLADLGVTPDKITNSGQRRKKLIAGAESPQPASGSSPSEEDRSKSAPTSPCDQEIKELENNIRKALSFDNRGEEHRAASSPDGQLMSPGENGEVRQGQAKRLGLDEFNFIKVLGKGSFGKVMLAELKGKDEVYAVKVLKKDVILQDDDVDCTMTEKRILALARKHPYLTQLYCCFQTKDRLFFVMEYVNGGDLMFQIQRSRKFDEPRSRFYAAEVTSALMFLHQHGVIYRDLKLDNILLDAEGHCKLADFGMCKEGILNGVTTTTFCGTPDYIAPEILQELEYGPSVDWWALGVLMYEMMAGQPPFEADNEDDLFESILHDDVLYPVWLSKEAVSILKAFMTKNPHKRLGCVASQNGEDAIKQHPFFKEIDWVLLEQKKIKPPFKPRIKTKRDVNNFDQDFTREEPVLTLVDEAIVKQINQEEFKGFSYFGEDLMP
T12 sequence (Q15418 whole entry): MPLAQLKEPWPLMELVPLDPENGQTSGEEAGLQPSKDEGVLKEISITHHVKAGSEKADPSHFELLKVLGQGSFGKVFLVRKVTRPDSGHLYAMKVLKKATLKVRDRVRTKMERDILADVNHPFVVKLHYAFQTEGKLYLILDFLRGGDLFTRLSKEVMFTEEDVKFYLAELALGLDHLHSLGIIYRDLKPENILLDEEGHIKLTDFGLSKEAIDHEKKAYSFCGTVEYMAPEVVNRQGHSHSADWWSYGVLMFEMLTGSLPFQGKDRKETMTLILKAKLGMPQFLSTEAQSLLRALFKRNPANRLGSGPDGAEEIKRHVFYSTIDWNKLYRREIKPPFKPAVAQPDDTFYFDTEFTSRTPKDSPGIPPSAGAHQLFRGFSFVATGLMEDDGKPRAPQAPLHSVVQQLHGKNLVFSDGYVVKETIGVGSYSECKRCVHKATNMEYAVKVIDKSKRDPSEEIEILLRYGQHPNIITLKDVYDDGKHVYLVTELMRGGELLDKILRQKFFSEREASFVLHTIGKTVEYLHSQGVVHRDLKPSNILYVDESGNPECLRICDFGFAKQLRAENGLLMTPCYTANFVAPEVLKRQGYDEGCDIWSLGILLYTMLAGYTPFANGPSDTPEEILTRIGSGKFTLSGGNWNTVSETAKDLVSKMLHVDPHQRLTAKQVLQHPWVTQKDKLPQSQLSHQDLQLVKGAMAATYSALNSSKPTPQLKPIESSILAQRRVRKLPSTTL

Avg. POC (PDGFRbeta): 114 POC
Avg. POC (EphB2): 104 POC
Avg. POC (PTK6): 114 POC
Avg. POC (Yes): 109 POC
Avg. POC (STK33): 109.5 POC
Avg. POC (TrkA): 0 POC
Avg. POC (BLK_m): 113 POC
Avg. POC (MST1): 89.5 POC
Avg. POC (MAP3K5): 88 POC
Avg. POC (MELK): 97.5 POC
Avg. POC (SGK3): 109 POC
Avg. POC (Rsk1): 115 POC
Avg. POC (TAK1): 97 POC
Avg. POC (ALK4): 98.5 POC
Avg. POC (CDK6/cyclinD3): 103.5 POC
Avg. POC (Syk): 99.5 POC
Avg. POC (NLK): 99 POC
Avg. POC (FGFR3): 101 POC
Avg. POC (Lyn): 104.5 POC
Avg. POC (MARK1): 103.5 POC
Avg. POC (MKK6): 83 POC
Avg. POC (ITK): 122.5 POC
Avg. POC (MSSK1): 108.5 POC
Avg. POC (TEC Activated): 107 POC
Avg. POC (Abl): 114 POC
Avg. POC (LOK): 108.5 POC
Avg. POC (GRK6): 110 POC
Avg. POC (PKCepsilon): 107.5 POC
Avg. POC (Ron): 100 POC
Avg. POC (PKCmu): 100.5 POC
Avg. POC (PKCbetaI): 101 POC
Avg. POC (Rsk4): 147 POC
Avg. POC (IRAK4): 124 POC
Avg. POC (MARK2): 98 POC
Avg. POC (MSK1): 121 POC
Avg. POC (BrSK2): 116 POC
Avg. POC (ULK3): 108 POC
Avg. POC (AURKA): 118 POC
Avg. POC (Fyn): 128.5 POC
Avg. POC (JNK2alpha2): 107.5 POC
Avg. POC (DAPK1): 103 POC
Avg. POC (c-RAF): 118.5 POC
SMILES: COCCN1C[C@@H](NC(=O)Nc2c(-c3ccccc3)nc3c(C)nccn23)[C@H](c2ccc(F)c(F)c2)C1 [Example 20, 1-((3S,4R)-4-(3,4-difluorophenyl)-1-(2-methoxyethyl)pyrrolidin-3-yl)-3-(8-methyl-2-phenylimidazo[1,2-a]pyrazin-3-yl)urea]
